Patent publication US8415475B2, “Antibacterial quinoline derivatives” (Janssen Pharmaceutica N.V., priority 2006, dated 2013)
In brackets after ≈: the same amount, converted by molar mass.

Key:
M. Smegmatis (ATCC607) = assay: In-vitro anti-bacterial activity against strain M. smegmatis ATCC607; type: cell-based; conditions: 90% inhibitory concentration for bacterial growth, Alamar Blue fluorescence; for IC90 values MSM 1 ATCC607: 48 hours; for IC90: Mycolicibacterium smegmatis, ATCC607, 48 h, read-out: IC90 values MSM 1 ATCC607
Experimental: D.2. In-Vitro Method for Testing Compounds for Anti-Bacterial Activity Against Strain M. smegmatis ATCC607. Flat-bottom, sterile 96-well plastic microtiter plates were filled with 180 μl of sterile deionized water, supplemented with 0.25% BSA. Subsequently, stock solutions (7.8× final test concentration) of compounds were added in 45 μl volumes to a series of duplicate wells in column 2 so as to allow evaluation of their effects on bacterial growth. Serial five-fold dilutions (45 μl in 180 μl) were made directly in the microtiter plates from column 2 to 11 using a customised robot system (Zymark Corp., Hopkinton, Mass.). Pipette tips were changed after every 3 dilutions to minimize pipetting errors with high hydrophobic compounds. Untreated control samples with (column 1) and without (column 12) inoculum were included in each microtiter plate. Approximately 250 CFU per well of bacteria inoculum, in a volume of 100 μl in 2.8× Mueller-Hinton broth medium, was added to the rows […]. The same volume of broth medium without inoculum was added to column 12 in row A to H. The cultures were incubated at 37° C. for 48 hours in a humidified 5% CO2 atmosphere (incubator with open air valve and continuous ventilation). At the end of incubation, two days after inoculation, the bacterial growth was quantitated fluorometrically. Therefore Alamar Blue (10×) was added to all wells in a volume of 20 μl and plates were incubated for another 2 hours at […] The fluorescence was read in a computer-controlled fluorometer (Cytofluor, Biosearch) at an excitation wavelength of 530 nm and an emission wavelength of 590 nm (gain 30).

[1] = tested on: Streptococcus pneumoniae (ATCC6305); assay: In-vitro anti-bacterial microtitre plate assay, IC90, S. pneumoniae; type: cell-based; conditions: 90% inhibitory concentration for bacterial growth, resazurin fluorescence; for IC90 values SPN 1 6305: 24 hours; for IC90: Streptococcus pneumoniae, ATCC6305, 24 h, read-out: IC90 values SPN 1 6305
Experimental: (§1) D.3. In-Vitro Method for Testing Compounds for Anti-Bacterial Activity Against Various Non-Mycobacterial Strains The bacteria used in this study were grown overnight in flasks containing 100 ml Mueller-Hinton Broth (Becton Dickinson-cat. no. 275730) in sterile de-ionized water, with shaking, at 37° C. Stocks (0.5 ml/tube) were stored at -70° C. until use. Bacteria titrations were performed in microtiter plates to detect the TCID50, in which the TCID50 represents the dilution that gives rise to bacterial growth in 50% of inoculated cultures. In general, an inoculum level of approximately 100 TCID50 was used for susceptibility testing. Flat-bottom, sterile 96-well plastic microtiter plates were filled with 180 μl of sterile deionized water, supplemented with 0.25% BSA. Subsequently, stock solutions (7.8× final test concentration) of compounds were added in 45 μl volumes in column 2. Serial five-fold dilutions (45 μl in 180 μl) were made directly in the microtiter plates from column 2 to reach column 11. Untreated control samples with (column 1) and without (column 12) inoculum were included in each microtiter plate. Depending on the bacteria type, approximately 10 to 60 CFU per well of bacteria inoculum (100 TCID50), in a volume of 100 μl in 2.8× Mueller-Hinton broth medium, was added to the rows […]. The same volume of broth medium without inoculum was added to column 12 in row A to H. The cultures were incubated at 37° C. for 24 hours under a normal atmosphere (incubator with open air valve and continuous ventilation). At the end of incubation, one day after inoculation, the bacterial growth was quantitated fluorometrically. Therefore resazurin (0.6 mg/ml) was added in a volume of 20 μl to all wells 3 hours after inoculation, and the plates were re-incubated overnight. A change in colour from blue to pink indicated the growth of bacteria. The fluorescence was read in a computer-controlled fluorometer (Cytofluor Biosearch) at an excitation wavelength of 530 nm and an emission wavelength of 590 nm. The % growth inhibition achieved by the compounds was calculated according to standard methods.

[2] = tested on: Staphylococcus aureus (ATCC29213); assay: In-vitro anti-bacterial microtitre plate assay, IC90, S. aureus; type: cell-based; conditions: 90% inhibitory concentration for bacterial growth, resazurin fluorescence; for IC90 values STA 1 B29213: 24 hours; for IC90: Staphylococcus aureus, ATCC29213, 24 h, read-out: IC90 values STA 1 B29213
Experimental: as §1

[3] = tested on: Enterococcus faecalis (ATCC29212); assay: In-vitro anti-bacterial microtitre plate assay, IC90, E. faecalis; type: cell-based; conditions: 90% inhibitory concentration for bacterial growth, resazurin fluorescence; for IC90: Enterococcus faecalis, ATCC29212, 24 h, read-out: IC90 values EFA 29212
Experimental: as §1

[4] = tested on: Streptococcus pyogens (ATCC8668); assay: In-vitro anti-bacterial microtitre plate assay, IC90, S. pyogens; type: cell-based; conditions: 90% inhibitory concentration for bacterial growth, resazurin fluorescence; for IC90: Streptococcus, ATCC8668, 24 h, read-out: IC90 values SPY 8668
Experimental: as §1

[5] = tested on: Mycobacterium tuberculosis (strain H37RV); assay: In-vitro method for testing compounds against M. tuberculosis; type: cell-based; conditions: 90% inhibitory concentration for bacterial growth, 7 days, Middlebrook broth, resazurin fluorescence; for IC90: Mycobacterium tuberculosis, H37RV, 168 h, read-out: IC90 values MTB 1 H37RV

| melting point [°C] | IC90 values SPN 1 6305 [1] [µg/mL] | IC90 values STA 1 B29213 [2] [µg/mL] | IC90 [2] [µg/mL] | IC90 [1] [µg/mL] | SMILES | IC90 values MSM 1 ATCC607 (M. Smegmatis (ATCC607)) [µg/mL] | also measured |
| --- | --- | --- | --- | --- | --- | --- | --- |
| 180 | 1.9 (≈ 3.47 µM) | 1.7 (≈ 3.1 µM) | – | – | COc1nc2ccc(/C=N/O)cc2cc1C(c1ccccc1)C(O)(CCCCN(C)C)c1ccc2ccccc2c1 (single isomer, unassigned) [Compound 33] | 1.7 (≈ 3.1 µM) | – |
| 189 | 0.7 (≈ 1.35 µM) | – | 51.7 (≈ 100 µM) | – | C/C=C/c1ccc2nc(OC)c(C(c3ccccc3)C(O)(CCN(C)C)c3cccc4ccccc34)cc2c1 (single isomer, unassigned) [Compound 12] | 0.3 (≈ 0.581 µM) | IC90 [3]: 51.7 µg/mL (≈ 100 µM); IC90 [4]: 51.7 µg/mL (≈ 100 µM) |
| 185 | – | – | – | – | COc1nc2ccc(C(=O)c3cccc(Br)c3)cc2cc1C(c1ccc(Cl)cc1)C(O)(CCN(C)C)c1ccccc1 (single isomer, unassigned) [Compound 40] | – | – |
| 184 | – | – | 48.7 (≈ 100 µM) | 1.7 (≈ 3.49 µM) | C=Cc1ccc2nc(OC)c(C(c3ccc(Cl)cc3)C(O)(CCN(C)C)c3ccccc3)cc2c1 (single isomer, unassigned) [Compound 1] | – | – |
| – | – | – | 9.3 (≈ 15.8 µM) | 10.5 (≈ 17.8 µM) | COc1nc2ccc(CN3CCN(C)CC3)cc2cc1C(c1ccccc1)C(O)(CCN(C)C)c1cccc2ccccc12 (single isomer, unassigned) [Compound 29] | – | IC90 (M. Smegmatis (ATCC607)): 2.6 µg/mL (≈ 4.42 µM) |
| – | 10.4 (≈ 20 µM) | 1.7 (≈ 3.26 µM) | – | – | C=Cc1ccc2nc(OC)c(C(c3ccccc3)C(O)(CCCCN3CCCCC3)c3ccccc3)cc2c1 (single isomer, unassigned) [Compound 35] | 1.7 (≈ 3.26 µM) | – |
| – | – | – | 7.9 (≈ 15.9 µM) | 49.8 (≈ 100 µM) | COc1nc2ccc(/C=N/O)cc2cc1C(c1ccccc1)C(O)(CCCCN(C)C)c1ccccc1 (single isomer, unassigned) [Compound 3] | – | IC90 (M. Smegmatis (ATCC607)): 7.9 µg/mL (≈ 15.9 µM) |
| 202 | 1.5 (≈ 2.91 µM) | 45.9 (≈ 89.2 µM) | – | – | CC#Cc1ccc2nc(OC)c(C(c3ccccc3)C(O)(CCN(C)C)c3cccc4ccccc34)cc2c1 (single isomer, unassigned) [Compound 14] | 0.3 (≈ 0.583 µM) | IC90 values EFA 29212 ([3]; 24 hours): 51.47 µg/mL (≈ 100 µM); IC90 values SPY 8668 ([4]; 24 hours): 40.88 µg/mL (≈ 79.4 µM) |
| 187 | 1.7 (≈ 3.49 µM) | 48.7 (≈ 100 µM) | – | – | C=Cc1ccc2nc(OC)c(C(c3ccc(Cl)cc3)C(O)(CCN(C)C)c3ccccc3)cc2c1 (single isomer, unassigned) [Compound 2] | – | IC90 (M. Smegmatis (ATCC607)): 1.4 µg/mL (≈ 2.87 µM); IC90 [3]: 38.7 µg/mL (≈ 79.4 µM); IC90 [4]: 1.22 µg/mL (≈ 2.5 µM) |
| – | – | – | 10.7 (≈ 20 µM) | 13.4 (≈ 25.1 µM) | COc1nc2ccc(CN(C)C)cc2cc1C(c1ccccc1)C(O)(CCN(C)C)c1cccc2ccccc12 (single isomer, unassigned) [Compound 21] | 0.7 (≈ 1.31 µM) | – |
| 100 | 0.3 (≈ 0.583 µM) | – | 51.5 (≈ 100 µM) | – | CC#Cc1ccc2nc(OC)c(C(c3ccccc3)C(O)(CCN(C)C)c3cccc4ccccc34)cc2c1 (single isomer, unassigned) [Compound 13] | 0.003 (≈ 0.00583 µM) | IC90 [3]: 51.5 µg/mL (≈ 100 µM); IC90 [4]: 51.5 µg/mL (≈ 100 µM) |
| – | 2.1 (≈ 4.03 µM) | – | 1.7 (≈ 3.26 µM) | – | C=Cc1ccc2nc(OC)c(C(c3ccccc3)C(O)(CCCCN3CCCCC3)c3ccccc3)cc2c1 (single isomer, unassigned) [Compound 34] | – | IC90 (M. Smegmatis (ATCC607)): 1.7 µg/mL (≈ 3.26 µM) |
| – | – | – | 8.1 (≈ 15.8 µM) | 10.2 (≈ 19.9 µM) | CO/N=C/c1ccc2nc(OC)c(C(c3ccccc3)C(O)(CCCCN(C)C)c3ccccc3)cc2c1 (single isomer, unassigned) [Compound 4] | – | IC90 (M. Smegmatis (ATCC607)): 1.6 µg/mL (≈ 3.13 µM) |
| – | 21.3 (≈ 39.9 µM) | 9.5 (≈ 17.8 µM) | – | – | COc1nc2ccc(CN(C)C)cc2cc1C(c1ccccc1)C(O)(CCN(C)C)c1cccc2ccccc12 (single isomer, unassigned) [Compound 22] | 18.9 (≈ 35.4 µM) | – |

The next lines start with the molecule.

| SMILES | melting point [°C] | IC90 values SPN 1 6305 [1] [µg/mL] | IC90 values STA 1 B29213 [2] [µg/mL] | IC90 [2] [µg/mL] | IC90 [1] [µg/mL] | IC90 values MSM 1 ATCC607 (M. Smegmatis (ATCC607)) [µg/mL] | also measured |
| --- | --- | --- | --- | --- | --- | --- | --- |
| COc1nc2ccc(CN)cc2cc1C(c1ccccc1)C(O)(CCN(C)C)c1cccc2ccccc12 (single isomer, unassigned) [Compound 17] | – | 8.0 (≈ 15.8 µM) | 8.0 (≈ 15.8 µM) | – | – | 0.4 (≈ 0.791 µM) | IC90 [5]: 3.6 µg/mL (≈ 7.12 µM) |
| COc1nc2ccc(CN)cc2cc1C(c1ccccc1)C(O)(CCN(C)C)c1cccc2ccccc12 (single isomer, unassigned) [Compound 20] | – | – | 35.8 (≈ 70.8 µM) | – | 8 (≈ 15.8 µM) | 40.2 (≈ 79.5 µM) | – |
| C=Cc1ccc2nc(OC)c(C(c3ccccc3)C(O)(CCN(C)C)c3cccc4ccccc34)cc2c1 (single isomer, unassigned) [Compound 10] | – | 20.0 (≈ 39.8 µM) | – | 50.3 (≈ 100 µM) | – | – | IC90 (M. Smegmatis (ATCC607)): 8 µg/mL (≈ 15.9 µM) |
| COc1nc2ccc(C(=O)N(C)C)cc2cc1C(c1ccccc1)C(O)(CCN(C)C)c1cccc2ccccc12 (single isomer, unassigned) [Compound 28] | – | – | – | 43.5 (≈ 79.4 µM) | 10.9 (≈ 19.9 µM) | – | IC90 [5]: 3.5 µg/mL (≈ 6.39 µM); IC90 (M. Smegmatis (ATCC607)): 0.1 µg/mL (≈ 0.183 µM) |
| C=Cc1ccc2nc(OC)c(C(c3ccccc3)C(O)(CCc3ccc(F)cc3)CCN(C)C)cc2c1 (single isomer, unassigned) [Compound 6] | 135 | – | – | 1.6 (≈ 3.21 µM) | 1.3 (≈ 2.61 µM) | 0.1 (≈ 0.201 µM) | – |
| COc1nc2ccc(N)cc2cc1C(c1ccccc1)C(O)(CCN(C)C)c1cccc2ccccc12 (single isomer, unassigned) [Compound 16] | – | 24.6 (≈ 50 µM) | 43.8 (≈ 89.1 µM) | – | – | 7.8 (≈ 15.9 µM) | IC90 values MTB 1 H37RV [5]: 31.0 µg/mL (≈ 63.1 µM) |
| COc1nc2ccc(/C=N/O)cc2cc1C(c1ccccc1)C(O)(CCN(C)C)c1cccc2ccccc12 (single isomer, unassigned) [Compound 24] | 167 | 1.6 (≈ 3.08 µM) | – | 8.2 (≈ 15.8 µM) | – | 2.3 (≈ 4.43 µM) | – |
| C=Cc1ccc2nc(OC)c(C(c3ccccc3)C(O)(CCc3ccc(F)cc3)CCN(C)C)cc2c1 (single isomer, unassigned) [Compound 7] | 156 | 1.3 (≈ 2.61 µM) | 1.6 (≈ 3.21 µM) | – | – | 1.3 (≈ 2.61 µM) | – |
| COc1nc2ccc(C(=O)c3cccc(Br)c3)cc2cc1C(c1ccccc1)C(O)(CCN(C)C)c1cccc2ccccc12 (stereo not drawn) [Compound 38] | 118 | – | – | – | – | – | – |
| COc1nc2ccc(/C=N/O)cc2cc1C(c1ccccc1)C(O)(CCCCN(C)C)c1ccc2ccccc2c1 (single isomer, unassigned) [Compound 32] | – | 10.9 (≈ 19.9 µM) | – | 1.7 (≈ 3.1 µM) | – | 7.7 (≈ 14.1 µM) | – |
